Experimental data taken from patent publication US10526316B2, “Quinoxaline and pyridopyrazine derivatives as PI3Kβ inhibitors” (Janssen Pharmaceutica NV, priority 2015, dated 2020).
Read-outs that look alike come from different tables or passages of the source.

Experiments:
PI3Kβ = target: T1, PI3Kβ (Homo sapiens, UniProt P42338); test: Enzyme binding assay (KINOMEscan, DiscoveRx); conditions: PIK3Cβ_h, read-out: Kd PIK3Cβ_h
T1 construct: purchased DiscoveRx Corporation, San Diego (contract service, KINOMEscan)
T1 sequence (P42338 whole entry): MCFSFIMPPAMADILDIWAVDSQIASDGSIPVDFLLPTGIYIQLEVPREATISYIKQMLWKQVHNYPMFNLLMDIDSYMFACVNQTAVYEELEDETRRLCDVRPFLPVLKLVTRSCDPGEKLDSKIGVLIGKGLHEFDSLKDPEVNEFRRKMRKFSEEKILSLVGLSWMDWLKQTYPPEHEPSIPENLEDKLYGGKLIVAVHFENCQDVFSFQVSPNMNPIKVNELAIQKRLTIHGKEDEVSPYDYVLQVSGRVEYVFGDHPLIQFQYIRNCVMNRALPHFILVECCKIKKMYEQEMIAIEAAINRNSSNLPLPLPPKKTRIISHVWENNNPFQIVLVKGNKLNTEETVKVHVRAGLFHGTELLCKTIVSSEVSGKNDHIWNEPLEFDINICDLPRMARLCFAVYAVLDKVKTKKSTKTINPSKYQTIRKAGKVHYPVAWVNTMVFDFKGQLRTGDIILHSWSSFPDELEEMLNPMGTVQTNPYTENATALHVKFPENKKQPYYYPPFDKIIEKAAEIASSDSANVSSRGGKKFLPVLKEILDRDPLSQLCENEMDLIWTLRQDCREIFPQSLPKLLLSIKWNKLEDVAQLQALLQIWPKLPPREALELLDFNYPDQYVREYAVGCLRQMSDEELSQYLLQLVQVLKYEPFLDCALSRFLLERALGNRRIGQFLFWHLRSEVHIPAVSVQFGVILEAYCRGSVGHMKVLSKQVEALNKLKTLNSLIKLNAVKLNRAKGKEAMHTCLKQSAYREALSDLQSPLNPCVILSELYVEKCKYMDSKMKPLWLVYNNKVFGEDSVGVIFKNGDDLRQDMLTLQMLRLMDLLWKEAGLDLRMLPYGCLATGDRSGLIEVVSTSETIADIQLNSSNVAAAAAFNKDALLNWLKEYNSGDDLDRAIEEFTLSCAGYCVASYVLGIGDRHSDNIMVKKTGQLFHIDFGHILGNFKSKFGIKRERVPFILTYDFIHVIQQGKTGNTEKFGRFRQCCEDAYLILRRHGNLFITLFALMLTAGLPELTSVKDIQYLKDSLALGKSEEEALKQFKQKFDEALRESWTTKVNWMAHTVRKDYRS
Method in brief: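 KINOMEscan binding platform; read-out is the inhibitor binding constant Kd (nM).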

PI3Kδ = target: T2, PI3Kδ (Homo sapiens, UniProt O00329); test: Enzyme binding assay (KINOMEscan, DiscoveRx); conditions: PIK3Cδ_h
T2 construct: purchased DiscoveRx Corporation, San Diego (contract service, KINOMEscan)
T2 sequence (O00329 1-1044): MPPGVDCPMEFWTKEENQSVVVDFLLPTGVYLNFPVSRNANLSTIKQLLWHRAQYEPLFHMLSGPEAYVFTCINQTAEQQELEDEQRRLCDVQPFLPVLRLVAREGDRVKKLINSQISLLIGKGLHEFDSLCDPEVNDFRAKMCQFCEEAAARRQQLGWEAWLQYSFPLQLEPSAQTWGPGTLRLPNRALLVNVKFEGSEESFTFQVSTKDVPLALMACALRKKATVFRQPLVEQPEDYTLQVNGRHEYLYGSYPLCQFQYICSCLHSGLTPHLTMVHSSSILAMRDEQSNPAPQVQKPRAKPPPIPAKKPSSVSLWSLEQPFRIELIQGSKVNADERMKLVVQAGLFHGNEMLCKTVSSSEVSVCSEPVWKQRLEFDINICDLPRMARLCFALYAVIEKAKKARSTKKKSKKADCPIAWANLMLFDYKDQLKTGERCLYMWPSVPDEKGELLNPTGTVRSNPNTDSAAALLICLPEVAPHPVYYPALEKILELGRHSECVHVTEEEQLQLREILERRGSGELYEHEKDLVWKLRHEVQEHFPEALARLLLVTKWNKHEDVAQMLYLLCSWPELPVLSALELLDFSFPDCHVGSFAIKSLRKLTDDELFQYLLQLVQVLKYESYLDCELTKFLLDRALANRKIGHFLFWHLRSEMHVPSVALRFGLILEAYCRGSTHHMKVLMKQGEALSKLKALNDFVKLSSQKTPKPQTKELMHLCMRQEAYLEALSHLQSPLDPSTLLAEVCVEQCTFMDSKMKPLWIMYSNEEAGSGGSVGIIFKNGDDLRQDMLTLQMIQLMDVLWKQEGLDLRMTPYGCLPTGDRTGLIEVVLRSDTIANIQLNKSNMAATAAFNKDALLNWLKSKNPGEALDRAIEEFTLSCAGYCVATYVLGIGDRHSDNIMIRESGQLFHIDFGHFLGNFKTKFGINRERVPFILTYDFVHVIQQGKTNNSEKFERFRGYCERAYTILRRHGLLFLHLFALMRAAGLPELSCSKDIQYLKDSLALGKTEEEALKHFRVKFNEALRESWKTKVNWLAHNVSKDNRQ
Method in brief: (§1)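 KINOMEscan readout; values are kinase binding affinities.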

kinase enzymes [1] = target: T3, kinase enzymes (Homo sapiens, UniProt P42336); test: Enzyme binding assay (KINOMEscan, DiscoveRx), further kinases of Table A; conditions: PIK3Cα_h
T3 construct: purchased DiscoveRx Corporation, San Diego (contract service, KINOMEscan)
T3 sequence (P42336 whole entry): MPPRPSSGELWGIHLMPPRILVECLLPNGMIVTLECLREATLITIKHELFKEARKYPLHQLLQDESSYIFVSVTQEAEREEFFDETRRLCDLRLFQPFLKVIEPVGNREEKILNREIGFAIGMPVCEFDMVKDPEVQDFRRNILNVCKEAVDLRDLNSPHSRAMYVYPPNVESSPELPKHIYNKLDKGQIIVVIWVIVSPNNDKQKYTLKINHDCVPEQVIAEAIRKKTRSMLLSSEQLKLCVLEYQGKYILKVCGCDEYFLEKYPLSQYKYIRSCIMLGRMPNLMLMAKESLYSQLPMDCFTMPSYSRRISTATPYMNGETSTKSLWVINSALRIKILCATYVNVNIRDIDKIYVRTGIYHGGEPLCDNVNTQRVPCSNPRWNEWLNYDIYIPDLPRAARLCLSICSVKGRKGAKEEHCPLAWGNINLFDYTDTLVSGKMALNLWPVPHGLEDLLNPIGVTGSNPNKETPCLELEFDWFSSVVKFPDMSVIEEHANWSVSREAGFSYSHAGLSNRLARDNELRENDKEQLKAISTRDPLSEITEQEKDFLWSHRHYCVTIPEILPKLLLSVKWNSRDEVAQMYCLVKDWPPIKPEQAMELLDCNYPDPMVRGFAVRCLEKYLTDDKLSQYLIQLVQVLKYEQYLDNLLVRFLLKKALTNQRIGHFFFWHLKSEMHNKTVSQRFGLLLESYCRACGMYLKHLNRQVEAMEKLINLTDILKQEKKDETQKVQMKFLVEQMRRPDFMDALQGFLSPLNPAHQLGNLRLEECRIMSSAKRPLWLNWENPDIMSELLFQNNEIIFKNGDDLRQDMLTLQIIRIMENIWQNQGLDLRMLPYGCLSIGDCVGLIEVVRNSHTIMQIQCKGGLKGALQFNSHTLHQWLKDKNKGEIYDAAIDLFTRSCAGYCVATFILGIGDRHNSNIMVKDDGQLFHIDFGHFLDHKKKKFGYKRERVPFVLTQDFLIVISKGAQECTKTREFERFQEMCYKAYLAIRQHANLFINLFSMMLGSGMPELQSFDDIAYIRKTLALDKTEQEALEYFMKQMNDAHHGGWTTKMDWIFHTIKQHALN
Method in brief: as §1

kinase enzymes [2] = target: T4, kinase enzymes (Homo sapiens, UniProt P42345); test: as above; conditions: MTOR_h
T4 construct: purchased DiscoveRx Corporation, San Diego (contract service, KINOMEscan)
Method in brief: as §1

kinase enzymes [3] = target: T5, kinase enzymes (Homo sapiens, UniProt P48736); test: as above; conditions: PIK3Cγ_h
T5 construct: purchased DiscoveRx Corporation, San Diego (contract service, KINOMEscan)
T5 sequence (P48736 whole entry): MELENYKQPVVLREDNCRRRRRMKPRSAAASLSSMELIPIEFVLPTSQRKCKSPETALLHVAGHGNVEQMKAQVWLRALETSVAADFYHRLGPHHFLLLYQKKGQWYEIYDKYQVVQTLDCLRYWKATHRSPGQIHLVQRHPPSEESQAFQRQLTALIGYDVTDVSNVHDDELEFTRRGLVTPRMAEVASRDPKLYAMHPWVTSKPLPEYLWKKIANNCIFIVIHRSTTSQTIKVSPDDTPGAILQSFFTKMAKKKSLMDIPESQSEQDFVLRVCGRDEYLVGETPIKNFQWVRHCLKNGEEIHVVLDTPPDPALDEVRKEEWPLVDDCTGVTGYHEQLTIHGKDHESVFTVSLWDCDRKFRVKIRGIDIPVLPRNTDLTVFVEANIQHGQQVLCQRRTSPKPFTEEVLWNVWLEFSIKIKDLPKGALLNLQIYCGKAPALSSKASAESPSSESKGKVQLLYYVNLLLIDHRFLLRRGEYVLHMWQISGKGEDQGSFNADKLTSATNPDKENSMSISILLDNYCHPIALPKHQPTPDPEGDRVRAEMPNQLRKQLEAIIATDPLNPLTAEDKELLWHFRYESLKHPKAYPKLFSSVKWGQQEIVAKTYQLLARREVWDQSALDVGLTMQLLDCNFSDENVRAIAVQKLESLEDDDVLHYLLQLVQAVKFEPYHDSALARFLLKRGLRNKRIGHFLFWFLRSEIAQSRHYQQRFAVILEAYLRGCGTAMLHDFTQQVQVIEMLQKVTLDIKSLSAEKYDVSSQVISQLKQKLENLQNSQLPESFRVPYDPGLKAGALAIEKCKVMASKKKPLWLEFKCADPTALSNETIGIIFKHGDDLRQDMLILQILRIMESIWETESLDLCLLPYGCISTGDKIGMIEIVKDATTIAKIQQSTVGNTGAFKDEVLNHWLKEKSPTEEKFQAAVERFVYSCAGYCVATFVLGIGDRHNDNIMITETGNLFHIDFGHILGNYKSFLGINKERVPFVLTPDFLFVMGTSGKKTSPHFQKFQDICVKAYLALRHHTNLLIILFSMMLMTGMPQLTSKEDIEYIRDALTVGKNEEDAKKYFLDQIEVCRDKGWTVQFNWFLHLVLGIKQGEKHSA
Method in brief: as §1

[4] = system: Akt phosphorylated at Ser473 in PC-3 cells; test: Cellular assay: phosphorylation of Akt at Ser473 in PC-3 cells (MSD ELISA); type: cell-based; conditions: PC-3 cells, 60 min compound incubation, MSD ELISA, read-out: IC50 pAkt_S473
Method in brief: (§2)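 After lysis of treated cells (60 min, 37° C, 0.3% DMSO), phospho-Akt levels were measured by MSD electrochemiluminescence ELISA. Potency was derived from concentration-response curves fitted over five concentrations.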

[5] = system: Akt phosphorylated at Thr308 in PC-3 cells; test: Cellular assay: phosphorylation of Akt at Thr308 in PC-3 cells (MSD ELISA); type: cell-based; conditions: PC-3 cells, 60 min compound incubation, MSD ELISA, read-out: IC50 pAkt_Thr308
Method in brief: as §2

Structure (SMILES): CN(C)C(=O)c1cc(CNc2cc(F)cc(F)c2)c2nc(N3CCOCC3)cnc2c1 [Compound 332]
- Kd (PI3Kβ): 0.015 µM
- Kd (PI3Kδ): 4.27 µM
- Kd (kinase enzymes [1]): 2.95 µM
- Kd (kinase enzymes [2]): > 30.2 µM
- Kd (kinase enzymes [3]): 21.4 µM
- IC50 ([4]; Homo sapiens, PC-3, 1 h): ~0.316 µM
- IC50 ([5]; Homo sapiens, PC-3, 1 h): 0.112 µM

Structure (SMILES): CC(Oc1cc(F)c(F)c(F)c1)c1cc(C(=O)N(C)C2CCNC2)cc2ncc(N3CCOCC3)nc12 (single isomer, unassigned) [Compound 404a]
- Kd (PI3Kβ): 1.51 µM
- Kd (PI3Kδ): > 30.2 µM
- Kd (kinase enzymes [1]): > 30.2 µM
- Kd (kinase enzymes [2]): > 30.2 µM
- Kd (kinase enzymes [3]): > 30.2 µM
- IC50 ([4]; Homo sapiens, PC-3, 1 h): > 0.513 µM
- IC50 ([5]; Homo sapiens, PC-3, 1 h): > 0.513 µM

Structure (SMILES): CC(Nc1cc(F)c(F)c(F)c1)c1cc(C(=O)N(C)C2CCNC2)cc2ncc(N3CCOCC3)nc12 (single isomer, unassigned) [Compound 296a]
- Kd (PI3Kβ): 0.001 µM
- Kd (PI3Kδ): 0.17 µM
- Kd (kinase enzymes [1]): 1.38 µM
- Kd (kinase enzymes [2]): > 30.2 µM
- Kd (kinase enzymes [3]): 3.24 µM
- IC50 [4]: 0.023 µM
- IC50 [5]: 0.016 µM

Structure (SMILES): CC(C)N1CCCN(C(=O)c2cc(N(C)Cc3cc(F)cc(F)c3)c3nc(N4CCOCC4)cnc3c2)CC1 [Compound 373]
- Kd (PI3Kβ): 0.158 µM
- Kd (PI3Kδ): 5.25 µM
- Kd (kinase enzymes [1]): > 30.2 µM
- Kd (kinase enzymes [2]): > 30.2 µM
- Kd (kinase enzymes [3]): > 30.2 µM
- IC50 ([4]; Homo sapiens, PC-3, 1 h): > 0.513 µM
- IC50 ([5]; Homo sapiens, PC-3, 1 h): > 0.513 µM

Structure (SMILES): CC(Oc1cccc(F)c1)c1cc(CO)cc2ncc(N3CCOCC3)nc12 (single isomer, unassigned) [Compound 89]
- Kd (PI3Kβ): 0.832 µM
- Kd (PI3Kδ): 11.7 µM
- Kd (kinase enzymes [1]): 7.24 µM
- Kd (kinase enzymes [2]): 13.5 µM
- Kd (kinase enzymes [3]): 9.55 µM
- IC50 [4]: > 0.513 µM
- IC50 [5]: > 0.513 µM

Structure (SMILES): CN(C)C(=O)c1cc(N2CCC[C@@H]2c2cc(F)cc(F)c2)c2nc(C3=CCOCC3)cnc2c1 [Compound 398]
- Kd (PI3Kβ): 0.257 µM
- Kd (PI3Kδ): 5.75 µM
- Kd (kinase enzymes [1]): 10.7 µM
- Kd (kinase enzymes [2]): > 30.2 µM
- Kd (kinase enzymes [3]): > 30.2 µM
- IC50 ([4]; Homo sapiens, PC-3, 1 h): > 0.513 µM
- IC50 ([5]; Homo sapiens, PC-3, 1 h): > 0.513 µM

Structure (SMILES): Cc1c(F)cccc1CN(C)c1cc(C(=O)N(C)CCNC(C)C)cc2ncc(N3CCOCC3)nc12 [Compound 386]
- Kd (PI3Kβ): 0.015 µM
- Kd (PI3Kδ): 0.692 µM
- Kd (kinase enzymes [1]): 3.24 µM
- Kd (kinase enzymes [2]): 24.5 µM
- Kd (kinase enzymes [3]): 14.8 µM
- IC50 ([4]; Homo sapiens, PC-3, 1 h): > 0.513 µM
- IC50 ([5]; Homo sapiens, PC-3, 1 h): > 0.513 µM

Structure (SMILES): CN[C@H]1CCN(C(=O)c2cc(C(C)Oc3cc(F)c(F)c(F)c3)c3nc(N4CCOCC4)cnc3c2)C1 (single isomer, unassigned) [Compound 405b]
- Kd (PI3Kβ): 0.001 µM
- Kd (PI3Kδ): 0.219 µM
- Kd (kinase enzymes [1]): 5.01 µM
- Kd (kinase enzymes [2]): 20.9 µM
- Kd (kinase enzymes [3]): 4.68 µM
- IC50 [4]: 0.044 µM
- IC50 [5]: 0.033 µM

Structure (SMILES): CC(C)NCCNC(=O)c1cc(C(C)Nc2cccc(F)c2)c2nc(N3CCOCC3)cnc2c1 (single isomer, unassigned) [Compound 228]
- Kd (PI3Kβ): 0.603 µM
- Kd (PI3Kδ): 15.5 µM
- Kd (kinase enzymes [1]): 6.17 µM
- Kd (kinase enzymes [2]): > 30.2 µM
- Kd (kinase enzymes [3]): 4.07 µM
- IC50 [4]: > 0.513 µM
- IC50 [5]: 0.347 µM

Structure (SMILES): COC(=O)[C@H]1CCCN1C(=O)c1cc(C(C)Nc2cc(F)cc(F)c2)c2nc(N3CCOCC3)cnc2c1 (stereo partly drawn) [Compound 272]
- Kd (PI3Kβ): 0.005 µM
- Kd (PI3Kδ): 2 µM
- Kd (kinase enzymes [1]): 4.9 µM
- Kd (kinase enzymes [2]): > 30.2 µM
- Kd (kinase enzymes [3]): > 30.2 µM
- IC50 ([4]; Homo sapiens, PC-3, 1 h): 0.151 µM
- IC50 ([5]; Homo sapiens, PC-3, 1 h): ~0.085 µM

Structure (SMILES): COC(=O)[C@@H]1CCCN1C(=O)c1cc(C(C)Nc2cc(F)cc(F)c2)c2nc(N3CCOCC3)cnc2c1 (stereo partly drawn) [Compound 273]
- Kd (PI3Kβ): 0.008 µM
- Kd (PI3Kδ): 2.75 µM
- Kd (kinase enzymes [1]): 6.31 µM
- Kd (kinase enzymes [2]): > 30.2 µM
- Kd (kinase enzymes [3]): > 10 µM
- IC50 ([4]; Homo sapiens, PC-3, 1 h): 0.447 µM
- IC50 ([5]; Homo sapiens, PC-3, 1 h): ~0.257 µM

Structure (SMILES): CNCCNC(=O)c1cc(C(C)Oc2ccc(Cl)c(F)c2)c2nc(N3CCOCC3)cnc2c1 (single isomer, unassigned) [Compound 380b]
- Kd (PI3Kβ): 0.005 µM
- Kd (PI3Kδ): 1.2 µM
- Kd (kinase enzymes [1]): 3.8 µM
- Kd (kinase enzymes [2]): 18.6 µM
- Kd (kinase enzymes [3]): 8.91 µM
- IC50 ([4]; Homo sapiens, PC-3, 1 h): > 0.513 µM
- IC50 ([5]; Homo sapiens, PC-3, 1 h): > 0.513 µM
